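How tested: cells in 96-well plates exposed to compound for 48 hours at five concentrations. GI50 marks 50% less growth. TGI marks complete inhibition of growth.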
Assays:
Assay in all cases: growth of human tumour cells (NCI), 48 h
KM12 colon = test system: KM12 colon
SF-539 CNS = test system: SF-539 CNS
BT-549 breast = test system: BT-549 breast
HCT-116 colon = test system: HCT-116 colon
OVCAR-3 ovarian = test system: OVCAR-3 ovarian
A549 NSCLC = test system: A549 NSCLC
TK-10 renal = test system: TK-10 renal
UACC-257 melanoma = test system: UACC-257 melanoma
SK-MEL-28 melanoma = test system: SK-MEL-28 melanoma
SNB-19 CNS = test system: SNB-19 CNS

Row | Structure (SMILES) | GI50 (KM12 colon) [nM] | TGI (KM12 colon) [µM] | GI50 (SF-539 CNS) [nM] | TGI (SF-539 CNS) [µM] | GI50 (BT-549 breast) [nM] | TGI (BT-549 breast) [nM] | GI50 (HCT-116 colon) [nM] | TGI (HCT-116 colon) [µM] | GI50 (OVCAR-3 ovarian) [nM] | TGI (OVCAR-3 ovarian) [µM] | GI50 (A549 NSCLC) [nM] | TGI (A549 NSCLC) [µM] | GI50 (TK-10 renal) [nM] | TGI (TK-10 renal) [µM] | GI50 (UACC-257 melanoma) [nM] | TGI (UACC-257 melanoma) [µM] | GI50 (SK-MEL-28 melanoma) [nM] | TGI (SK-MEL-28 melanoma) [µM] | GI50 (SNB-19 CNS) [nM] | TGI (SNB-19 CNS) [µM]
1 | O=C(OCc1ccc2c(Br)cc(Br)c(O)c2n1)c1cc2ccccc2[nH]1 | 1520 | 3.09 | 962 | 2.17 | 706 | 2060 | 160 | 0.368 | 281 | 0.921 | 1420 | 3.62 | 1180 | 2.43 | 1360 | 3.38 | 1240 | 2.51 | 1800 | 4.09
2 | COc1cc(Nc2cnc3ccc(C(F)(F)F)cc3n2)cc(OC)c1OC |  |  |  | > 100 |  |  |  | > 100 |  | > 100 |  | > 100 |  | > 100 |  | > 100 |  | > 100 |  | > 100
3 | CCCCCCCCCCCC[N+]1(CCCCCCCCCCCC)CCCC(C)C1 (stereo unspecified) |  |  |  |  | 817 | 3250 | 185 | 1.21 | 197 | 0.569 | 172 | 0.736 |  |  |  |  | 487 | 1.73 |  | 
4 | CC1=N/C(=C\c2ccc(/C=C3/N=C(C)OC3=O)cc2)C(=O)O1 |  | > 100 |  | > 100 |  |  |  | > 100 |  | > 100 |  | > 100 |  | > 100 |  | > 100 |  | > 100 |  | > 100
5 | O=C(NC1C(=O)NNC1c1cccc([N+](=O)[O-])c1)c1ccccc1 (stereo unspecified) |  | > 100 |  |  |  |  |  | > 100 |  | > 100 |  | > 100 |  | > 100 |  | > 100 |  | > 100 |  | > 100
6 | N#CNC(N)=NCc1ccccc1 |  | > 100 |  | > 100 |  |  |  | > 100 |  | > 100 |  | > 100 |  | > 100 |  | > 100 |  | > 100 |  | 
7 | COc1cc2oc(-c3ccc(O)cc3)cc(=O)c2c(O)c1C1OC(CO)C(O)C(O)C1O (stereo unspecified) |  | > 100 |  | > 100 |  |  |  | > 100 |  | > 100 |  | > 100 |  | > 100 |  | > 100 |  | > 100 |  | > 100
8 | Cc1ccc(S(=O)(=O)OCC/C(=C\[Si](C)(C)C)c2ccccc2)cc1 |  | > 100 |  | > 100 |  |  |  | > 100 |  | > 100 |  | > 100 |  | > 100 |  | > 100 |  | > 100 |  | > 100
9 | O=C(NC12CC3CCC1CC(C3)C2)[C@@H]1CCCN1C(=O)OCc1ccccc1 (stereo partly specified) |  | > 100 |  | > 100 |  |  |  | > 100 |  | > 100 |  | > 100 |  | > 100 |  | > 100 |  | > 100 |  | > 100
10 | OCc1cc2c(cn1)[nH]c1ccc(NCc3ccccc3)cc12 |  | 43.3 |  | > 100 |  |  |  | 38.4 |  | 69.6 |  | > 100 |  | 85.8 |  | 59.9 |  | 38.4 |  | > 100
11 | CCCCCCCC(=O)OCC(COC(=O)C(C)(C)C)OC(=O)Cc1ccccc1 (stereo unspecified) |  |  |  |  |  |  |  | > 100 |  | > 100 |  | > 100 |  | > 100 |  |  |  | > 100 |  | > 100
12 | O=C1NC(=O)c2c1n(Cc1ccccc1)c(=O)n2Cc1ccccc1 |  | > 100 |  | > 100 |  |  |  | > 100 |  | > 100 |  | > 100 |  | > 100 |  | > 100 |  | > 100 |  | > 100
13 | Cc1ccc2c(c1)CN1c3ccc(C)cc3CN2C1c1ccccc1O |  | > 100 |  | > 100 |  |  |  | > 100 |  | > 100 |  | > 100 |  | 88.1 |  |  |  | > 100 |  | 
14 | C[C@]12CCC3[C@@H](CCC45OC4C(=O)CC[C@]35C)C1Cc1cnn(-c3ccc(F)cc3)c1N2 (stereo partly specified) |  | 55.1 |  |  |  |  |  | 29 |  |  |  | > 100 |  | > 100 |  | > 100 |  | 85.2 |  | 92.6
15 | COC(=O)CCC(NC(=S)N/N=C/c1cccs1)C(=O)OC (stereo unspecified) |  | > 100 |  | > 100 |  |  |  | > 100 |  | > 100 |  | > 100 |  | > 100 |  | > 100 |  | > 100 |  | > 100
16 | O=C(Nc1ccc(N=C=S)cc1Cl)c1cc(Br)cc(Br)c1O |  | 55.3 |  | 54.6 |  |  |  | 31.7 |  | > 100 |  | 69.7 |  | 69.5 |  | 48.9 |  | > 100 |  | 64.3
17 | O=c1cc(O)cc2n1CCC2 |  | > 100 |  | > 100 |  |  |  | > 100 |  | > 100 |  | > 100 |  | > 100 |  | > 100 |  |  |  | > 100
18 | N#Cc1nc2c(S(=O)(=O)c3ccc(Cl)cc3)c(N)n(Nc3cccc(Cl)c3)c2nc1C#N |  |  | 30.7 | 0.179 | 131 |  | 15 |  |  | 0.0132 |  | > 100 | 20.7 |  |  | 37.2 | 3.49 | 0.011 | 137 | 
19 | Cc1cc([N+](=O)[O-])c(C)c2c1[nH]c1ccc(Cl)cc12 |  | > 100 |  | > 100 |  |  |  | > 100 |  | > 100 |  | > 100 |  | > 100 |  | > 100 |  | > 100 |  | > 100
20 | N#C/C(=C\c1cc(OCc2ccccc2)c(OCc2ccccc2)cn1)C(N)=O |  | > 100 |  | > 100 |  |  |  | > 100 |  | > 100 |  | > 100 |  | > 100 |  | > 100 |  | > 100 |  | > 100
21 | Cc1nc2ccccc2nc1CC(=O)C(=O)Nc1ccc(Cl)cc1Cl |  | > 100 |  | > 100 |  |  |  | > 100 |  | > 100 |  | > 100 |  | > 100 |  | > 100 |  | > 100 |  | > 100
22 | Cc1nc(N)nc(CCC(=O)Nc2cccc(C(F)(F)F)c2)c1-c1ccc(Cl)cc1 |  | > 100 |  | > 100 |  |  |  | > 100 |  | > 100 |  | > 100 |  | > 100 |  | > 100 |  | > 100 |  | > 100

Source: PubChem BioAssay (NCI)
